From PubChem BioAssay (NCI)
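How tested: cells in 96-well plates exposed to compound for 48 hours at five concentrations. GI50 is the concentration that inhibits growth by half. The concentration for full growth arrest is given as TGI.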

What was measured:
Experiment in all cases: NCI anticancer screen, dose series, 48 h
A498 renal = test system: A498 renal
OVCAR-3 ovarian = test system: OVCAR-3 ovarian
CCRF-CEM leukemia = test system: CCRF-CEM leukemia
OVCAR-8 ovarian = test system: OVCAR-8 ovarian
MDA-N = test system: MDA-N
SW-620 colon = test system: SW-620 colon
EKVX NSCLC = test system: EKVX NSCLC
HOP-62 NSCLC = test system: HOP-62 NSCLC
NCI-H226 lung = test system: NCI-H226 lung
SNB-75 CNS = test system: SNB-75 CNS
HCC-2998 colon = test system: HCC-2998 colon
SF-295 CNS = test system: SF-295 CNS
K-562 leukemia = test system: K-562 leukemia
HS 578T breast = test system: HS 578T breast
HT29 colon = test system: HT29 colon
MDA-MB-231 breast = test system: MDA-MB-231 breast
MALME-3M melanoma = test system: MALME-3M melanoma

| SMILES | TGI (A498 renal) [µM] | TGI (OVCAR-3 ovarian) [µM] | TGI (CCRF-CEM leukemia) [µM] | TGI (OVCAR-8 ovarian) [µM] | TGI (MDA-N) [µM] | TGI (SW-620 colon) [µM] | TGI (EKVX NSCLC) [µM] | TGI (HOP-62 NSCLC) [µM] | TGI (NCI-H226 lung) [µM] | TGI (SNB-75 CNS) [µM] | TGI (HCC-2998 colon) [µM] | TGI (SF-295 CNS) [µM] | TGI (K-562 leukemia) [µM] | TGI (HS 578T breast) [µM] | TGI (HT29 colon) [µM] | TGI (MDA-MB-231 breast) [µM] | TGI (MALME-3M melanoma) [µM] | GI50 (OVCAR-3 ovarian) [µM] | GI50 (NCI-H226 lung) [µM] | GI50 (SF-295 CNS) [µM] |
| --- | --- | --- | --- | --- | --- | --- | --- | --- | --- | --- | --- | --- | --- | --- | --- | --- | --- | --- | --- | --- |
| CCNC12CCC(C1)C(C)(C)C2=O (centres undefined) | > 100 | > 100 | > 100 | > 100 | > 100 | > 100 | > 100 | > 100 | > 100 | > 100 | > 100 | > 100 | > 100 | – | – | – | – | – | – | – |
| O=C1OC(C2(O)OC(=O)c3ccccc32)c2ccccc21 (centres undefined) | > 100 | > 100 | – | > 100 | > 100 | > 100 | > 100 | > 100 | > 100 | > 100 | > 100 | > 100 | – | > 100 | > 100 | > 100 | – | – | – | – |
| O=C(NNC(=S)NCc1ccccc1)c1csc(NC(=S)NC2CCCCC2)n1 | > 100 | > 100 | > 100 | > 100 | 73.2 | > 100 | > 100 | > 100 | 64.7 | – | > 100 | > 100 | – | – | 12.1 | 83.3 | > 100 | – | – | – |
| CC(=O)O[C@@]12CO[C@@H]1C[C@@H](O)[C@@]1(C)C(=O)[C@H](O)C3=C(C)[C@@H](OC(=O)[C@H](O)[C@@H](NC(=O)c4ccccc4)c4ccccc4)C[C@@](O)([C@@H](OC(=O)c4ccccc4)C12)C3(C)C (some centres undefined) | > 100 | – | > 67.5 | > 100 | – | > 100 | > 100 | > 69.7 | 81.9 | 0.0815 | 0.0705 | 8.52 | > 100 | – | 0.124 | 43.8 | – | – | – | – |
| O=c1cc(-c2ccco2)[nH]c2cc3c(cc12)OCO3 | > 100 | > 100 | > 100 | – | – | > 100 | > 100 | 43.8 | > 100 | 56.5 | > 100 | > 100 | > 100 | – | > 100 | – | > 100 | 42.9 | 24.4 | 28.1 |
| C#CCN(N=O)C(=O)NCCCCC(NC(C)=O)C(=O)NCc1ccccc1 (centres undefined) | > 100 | > 100 | > 100 | > 100 | – | > 100 | > 100 | > 100 | > 100 | > 100 | > 100 | > 100 | > 100 | – | > 100 | – | > 100 | – | – | – |
| CCOC(=O)c1cc(Br)c(-c2cc(C)no2)[nH]1 | 75.6 | 95.1 | – | > 100 | > 100 | > 100 | > 100 | – | > 100 | > 100 | – | > 100 | – | – | > 100 | > 100 | 61.3 | – | – | – |
| COc1nc2c(c(=O)n1C)N=C(c1ccccc1)[C@H](C(CC(=O)c1ccccc1)c1ccccc1)C(c1ccccc1)N2 (some centres undefined) | > 100 | > 100 | > 100 | > 100 | > 100 | > 100 | > 100 | > 100 | > 100 | 44.5 | > 100 | > 100 | > 100 | – | > 100 | 78.7 | – | – | – | – |
| Nc1ccc(C23CC4CC(C2)CC(c2ccc(N)cc2)(C4)C3)cc1 | 47.4 | > 100 | 29.7 | > 100 | > 100 | 28 | 81.6 | > 100 | 44.9 | – | 78.6 | – | 36.8 | – | – | – | – | – | – | – |
| COc1cc2c(cc1OC)CC1c3cc(OC)c(OC)cc3CCN1CC2 (centres undefined) | > 100 | > 100 | > 100 | > 100 | – | > 100 | > 100 | > 100 | > 100 | > 100 | > 100 | > 100 | > 100 | > 100 | > 100 | > 100 | – | – | – | – |
| CN(C)c1snc2c1c(=O)n(C)c(=O)n2C | > 100 | > 100 | > 100 | > 100 | – | > 100 | > 100 | > 100 | > 100 | > 100 | > 100 | > 100 | > 100 | – | > 100 | – | > 100 | – | – | – |
| CC(C)Oc1cccc(N2C(=NCCc3c[nH]c4ccccc34)Nc3ccncc3S2(=O)=O)c1 | > 100 | > 100 | > 100 | > 100 | – | > 100 | > 100 | > 100 | > 100 | > 100 | > 100 | > 100 | > 100 | > 100 | 20.3 | – | > 100 | – | – | – |
| COC(=O)C(C(=O)C(=O)Nc1cccc([N+](=O)[O-])c1)c1nc2ccc([N+](=O)[O-])cc2[nH]c1=O (centres undefined) | > 100 | > 100 | > 100 | > 100 | – | > 100 | > 100 | > 100 | > 100 | > 100 | > 100 | > 100 | > 100 | – | > 100 | – | > 100 | – | – | – |
| CN=C(N)c1ccc(N=C(N)c2ccc(C(N)=Nc3ccc(C(N)=NC)cc3)cc2)cc1 | – | > 100 | > 100 | > 100 | – | > 100 | – | > 100 | > 100 | > 100 | – | > 100 | > 100 | – | > 100 | – | > 100 | – | – | – |
| CCCCNC(=O)C1C2CCC(O2)C1C(=O)O (centres undefined) | 32.4 | 31.5 | – | 43.3 | – | 10.6 | 65.6 | > 100 | 35.3 | 52.1 | 46.6 | 74.7 | – | – | 55.4 | – | 43.7 | – | – | – |
| COC1(OC)C=CC2C1C1C=CC2C1(OC)OC (centres undefined) | > 100 | > 100 | > 100 | > 100 | – | > 100 | > 100 | > 100 | > 100 | > 100 | > 100 | > 100 | > 100 | > 100 | > 100 | > 100 | > 100 | – | – | – |
